These results are taken from ChEMBL document CHEMBL5727139, “Pyridine derivatives” (2018).

pIC50: −log10 of the molar value.

The pIC50 is the IC50 on a negative log10 scale, so that one unit is a factor of ten.

This test addresses T1, Leucyl-cystinyl aminopeptidase (Rattus norvegicus, UniProt P97629).
T1 sequence (P97629 whole entry): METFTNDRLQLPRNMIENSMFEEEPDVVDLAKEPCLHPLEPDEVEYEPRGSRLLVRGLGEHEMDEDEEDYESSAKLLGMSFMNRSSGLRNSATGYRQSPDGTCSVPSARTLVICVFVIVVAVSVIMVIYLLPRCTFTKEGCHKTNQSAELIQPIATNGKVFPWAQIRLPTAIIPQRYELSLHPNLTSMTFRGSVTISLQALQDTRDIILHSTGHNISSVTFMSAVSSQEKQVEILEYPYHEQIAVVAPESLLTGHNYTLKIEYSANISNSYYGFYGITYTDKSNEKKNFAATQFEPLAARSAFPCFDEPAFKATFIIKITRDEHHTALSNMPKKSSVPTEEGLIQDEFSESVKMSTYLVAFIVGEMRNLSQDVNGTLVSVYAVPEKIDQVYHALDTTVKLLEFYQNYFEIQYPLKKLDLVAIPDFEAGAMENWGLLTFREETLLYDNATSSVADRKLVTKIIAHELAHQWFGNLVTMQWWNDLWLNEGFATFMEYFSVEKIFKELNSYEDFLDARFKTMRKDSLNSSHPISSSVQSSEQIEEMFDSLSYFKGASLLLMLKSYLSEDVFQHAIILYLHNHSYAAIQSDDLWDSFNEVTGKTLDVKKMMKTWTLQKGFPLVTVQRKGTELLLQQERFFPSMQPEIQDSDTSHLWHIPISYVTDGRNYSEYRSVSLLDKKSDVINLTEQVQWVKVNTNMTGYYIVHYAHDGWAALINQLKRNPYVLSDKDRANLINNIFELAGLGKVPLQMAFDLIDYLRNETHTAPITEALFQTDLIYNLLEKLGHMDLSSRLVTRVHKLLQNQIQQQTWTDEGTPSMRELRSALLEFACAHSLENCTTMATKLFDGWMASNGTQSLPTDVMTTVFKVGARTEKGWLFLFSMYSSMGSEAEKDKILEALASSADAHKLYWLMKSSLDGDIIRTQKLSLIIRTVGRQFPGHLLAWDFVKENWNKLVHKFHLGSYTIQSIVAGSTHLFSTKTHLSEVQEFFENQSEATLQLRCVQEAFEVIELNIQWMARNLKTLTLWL
Put plainly: Inhibition Assay: The inventors have assumed that inhibition of nocturnal activity of placental leucine aminopeptidase (P-LAP), i.e. aminopeptidase that cleaves AVP, would maintain and/or increase an endogenous AVP level to enhance the antidiuretic effect, which would contribute to a decreased number of nocturnal voids, and have extensively studied compounds which inhibit P-LAP.
Take `Cc1c(CCCC2CC2)ccnc1C[C@](O)(C(=O)O)[C@@H](N)CC(C)C`: the negative-log IC50 (pIC50) was 6.43.
Under `CCCC1CC1c1ccnc(C[C@](O)(C(=O)O)[C@@H](N)CC(C)C)c1` (stereo partly drawn) stands 7.72; under `CSC[C@H](N)[C@](O)(Cc1cc(CCCC2CC2)c(C)cn1)C(=O)O`, 8.77; under `Cc1cnc(C[C@](O)(C(=O)O)[C@@H](N)CCC2CC2)cc1CCCC1CC1`, 9.24.
As for `CC(C)C[C@H](N)[C@](O)(Cc1nccc2c1CCC(CC1CC1)C2)C(=O)O` (stereo partly drawn), the pIC50 was 7.82.
Consider `COc1ccccc1CCc1ccnc(C[C@](O)(C(=O)O)[C@@H](N)CC(C)C)c1`, for which the negative-log IC50 (pIC50) was 7.92.
For the compound `C=CCSC[C@H](N)[C@](O)(Cc1cc(CCCC2CC2)ccn1)C(=O)O`, the pIC50 is 7.70.
With `CCCCCc1ccnc(C[C@](O)(C(=O)O)[C@@H](N)CC(C)C)c1`, the pIC50 is 7.96.
